According to ChEMBL document CHEMBL1201862, “PubChem BioAssay data set” (2004):
The source made the active and inactive calls.

Tests used:
[1] = molecular target: Oxysterols receptor LXR-beta (Homo sapiens, UniProt P55055); assay type: functional, cell-based;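 also: agonist activity at LXR measured by a cell-based luminescence readout across a dose range, run as a counterscreen for daf-12 agonists; HEK293 cells with Gal4-LXR fusion and GAL4-driven luciferase reporter; potency for activation of Gal4-LXR reporter so compounds are agonists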
Kallikrein-7 = Kallikrein-7 (Homo sapiens, UniProt P49862); assay: Fluorescence Intensity-based biochemical primary high throughput dose response assay to identify activators of kallikrein-7 (K7) zymogen.
Beta-galactosidase = Beta-galactosidase (Escherichia coli, UniProt Q8VNN2); assay: Dose response counterscreen for EBI2 assay utilizing the enzyme, b-galactosidase.; assay type: functional
[2] = HGIII-sPLA2 enzyme inhibition potency – biochemical, QFRET, IC50, dose response (AID 743457);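 also: green fluorescence rise as the enzyme cleaves BODIPY PC-A2 in liposomes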
Vero [3] = assay: cells; assay type: functional; details: Chlorocebus sabaeus
[4] = fluconazole-exposed Candida albicans growth modulators – fluorescence, retest, confirmation (AID 2467); assay type: functional, cell-based
Vero [5] = assay: cells; assay type: functional, cell-based; details: Chlorocebus sabaeus
[6] = NIH-3T3 fibroblast cytotoxicity, dose response, cytotoxicity control, cell-based, fluorescence, Alamar Blue, secondary assay (AID 2327); assay type: functional;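 also: NIH-3T3 mouse fibroblasts cultured with fluconazole at 8 µg/mL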
NS3 = NS3 (Hepatitis C virus, UniProt A3EZJ3); assay: PubChem AID 2173; parameters: species or system Hepacivirus hominis
Vero [7] = assay: viability of Vero cells under compound – cytotoxicity control for flavivirus capping enzyme inhibitors (AID 588742); assay type: functional; details: Chlorocebus sabaeus
[8] = IC50 of Artemis nuclease activity blockers – biochemical, fluorescence intensity, dose response (AID 720701); assay type: functional;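 also: Artemis endonuclease enzyme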
[9] = molecular target: COUP transcription factor 2 (Homo sapiens, UniProt P24468); assay: Luminescence-based cell-based high throughput dose response assay to identify inhibitors of COUP-TFII (NR2F2).; assay type: functional;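 also: HEK293 cells transiently cotransfected with COUP-TFII expression vector and reporter; luciferase reporter luminescence driven by COUP-TFII from the pX2-168 reporter plasmid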
[10] = molecular target: T1, Probable nicotinate-nucleotide adenylyltransferase (Staphylococcus aureus (strain N315), UniProt P65502); assay type: functional, Staphylococcus aureus subsp. aureus N315;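 as to IC50 Mean: confirmatory dose-response retesting of NadD inhibitor hits first found in an ultra-high-throughput screen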
[11] = molecular target: T2, Sentrin-specific protease 8 (Homo sapiens, UniProt Q96LD8); assay type: functional
T2 sequence (Q96LD8 whole entry): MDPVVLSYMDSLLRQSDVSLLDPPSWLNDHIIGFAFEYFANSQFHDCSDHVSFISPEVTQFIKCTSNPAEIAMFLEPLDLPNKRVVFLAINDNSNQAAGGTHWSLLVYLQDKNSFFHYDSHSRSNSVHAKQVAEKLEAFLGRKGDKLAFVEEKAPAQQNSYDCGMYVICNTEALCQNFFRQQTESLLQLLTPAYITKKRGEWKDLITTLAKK

[12] = molecular target: T3, Lysine-specific demethylase 4C (Homo sapiens, UniProt Q9H3R0); assay: inhibition of JMJD2C H3K9me3 demethylation – biochemical, DELFIA europium, cherry-picked samples, dose response (AID 488835); assay type: functional
T3 sequence (Q9H3R0 whole entry): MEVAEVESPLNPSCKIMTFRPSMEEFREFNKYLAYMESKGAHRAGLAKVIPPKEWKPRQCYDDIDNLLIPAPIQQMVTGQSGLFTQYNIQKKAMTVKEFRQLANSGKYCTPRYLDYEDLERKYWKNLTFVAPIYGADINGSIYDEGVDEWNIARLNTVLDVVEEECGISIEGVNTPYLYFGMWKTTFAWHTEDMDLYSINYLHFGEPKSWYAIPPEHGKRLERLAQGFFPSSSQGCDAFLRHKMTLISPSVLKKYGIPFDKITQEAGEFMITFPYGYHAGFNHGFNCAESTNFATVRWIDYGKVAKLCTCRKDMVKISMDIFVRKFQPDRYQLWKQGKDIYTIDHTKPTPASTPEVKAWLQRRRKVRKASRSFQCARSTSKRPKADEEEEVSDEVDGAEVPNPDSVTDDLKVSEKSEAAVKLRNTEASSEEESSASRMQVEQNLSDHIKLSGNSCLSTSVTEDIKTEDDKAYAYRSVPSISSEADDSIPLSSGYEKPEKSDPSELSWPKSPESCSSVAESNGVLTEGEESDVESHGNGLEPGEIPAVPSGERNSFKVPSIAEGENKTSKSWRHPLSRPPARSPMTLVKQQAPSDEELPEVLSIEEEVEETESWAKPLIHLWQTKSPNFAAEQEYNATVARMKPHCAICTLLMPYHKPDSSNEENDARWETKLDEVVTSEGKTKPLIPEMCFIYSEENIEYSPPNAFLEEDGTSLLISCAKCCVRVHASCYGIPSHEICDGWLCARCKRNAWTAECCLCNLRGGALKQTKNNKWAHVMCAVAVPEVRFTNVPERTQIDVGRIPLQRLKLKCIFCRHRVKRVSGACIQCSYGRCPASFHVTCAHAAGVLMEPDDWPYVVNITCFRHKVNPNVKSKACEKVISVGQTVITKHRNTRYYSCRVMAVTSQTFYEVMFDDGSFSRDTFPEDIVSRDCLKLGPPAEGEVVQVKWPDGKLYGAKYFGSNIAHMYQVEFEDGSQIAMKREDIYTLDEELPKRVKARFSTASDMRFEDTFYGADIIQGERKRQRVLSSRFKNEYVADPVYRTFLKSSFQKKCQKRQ

[13] = molecular target: T1, Probable nicotinate-nucleotide adenylyltransferase; assay type: functional, Staphylococcus aureus subsp. aureus N315; details: read-out: IC50_Mean
[14] = molecular target: T2, Sentrin-specific protease 8; assay type: functional; remark: listed apart in the source
[15] = molecular target: T4, Apoptotic protease-activating factor 1 (Homo sapiens, UniProt O14727); assay type: functional
T4 sequence (O14727 whole entry): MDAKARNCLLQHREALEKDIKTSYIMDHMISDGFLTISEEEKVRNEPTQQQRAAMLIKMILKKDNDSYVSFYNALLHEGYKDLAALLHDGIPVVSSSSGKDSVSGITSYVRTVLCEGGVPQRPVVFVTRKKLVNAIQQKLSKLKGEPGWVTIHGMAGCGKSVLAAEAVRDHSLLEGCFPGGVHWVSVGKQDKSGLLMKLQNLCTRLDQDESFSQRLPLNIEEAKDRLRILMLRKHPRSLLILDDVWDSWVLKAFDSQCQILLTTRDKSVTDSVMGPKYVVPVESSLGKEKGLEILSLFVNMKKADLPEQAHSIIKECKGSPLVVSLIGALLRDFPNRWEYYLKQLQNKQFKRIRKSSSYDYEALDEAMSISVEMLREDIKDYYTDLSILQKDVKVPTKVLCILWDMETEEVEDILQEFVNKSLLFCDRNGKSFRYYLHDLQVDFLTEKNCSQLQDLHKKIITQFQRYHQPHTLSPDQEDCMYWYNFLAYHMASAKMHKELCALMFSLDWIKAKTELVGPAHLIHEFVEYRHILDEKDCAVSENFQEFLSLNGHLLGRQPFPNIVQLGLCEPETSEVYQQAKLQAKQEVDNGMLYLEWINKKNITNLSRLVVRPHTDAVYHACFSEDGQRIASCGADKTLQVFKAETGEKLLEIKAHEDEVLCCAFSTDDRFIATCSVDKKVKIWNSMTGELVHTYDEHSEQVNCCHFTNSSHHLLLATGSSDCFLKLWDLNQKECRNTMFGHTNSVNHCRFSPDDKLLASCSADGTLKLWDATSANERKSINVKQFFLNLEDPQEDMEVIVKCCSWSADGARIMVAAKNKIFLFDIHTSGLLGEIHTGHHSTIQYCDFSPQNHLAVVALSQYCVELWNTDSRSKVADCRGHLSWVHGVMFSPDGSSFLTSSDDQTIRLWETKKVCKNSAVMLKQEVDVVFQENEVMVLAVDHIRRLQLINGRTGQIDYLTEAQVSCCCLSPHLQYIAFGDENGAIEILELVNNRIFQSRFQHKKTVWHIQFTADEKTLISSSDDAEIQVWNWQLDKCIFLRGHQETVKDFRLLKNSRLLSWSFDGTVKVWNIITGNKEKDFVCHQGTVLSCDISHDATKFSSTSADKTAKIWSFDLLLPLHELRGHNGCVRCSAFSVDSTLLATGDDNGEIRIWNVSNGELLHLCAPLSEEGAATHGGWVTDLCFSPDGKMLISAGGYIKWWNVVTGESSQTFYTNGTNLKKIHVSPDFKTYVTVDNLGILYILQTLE

INS1 = assay: INS-1E survival protection against cytokine death – cell-based, luminescence, retest, dose response (AID 449756); assay type: functional; details: Rattus norvegicus;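 also: cell death triggered by IL-1 beta plus TNF-alpha plus IFN-gamma mixture; protective hits raise ATP signal compared with cytokine alone wells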
[16] = glucagon-like peptide-1 release potency in STC-1, concentration-response, half-maximal inhibitory concentration in the STC-1 line (AID 1117345); assay type: functional, cell-based
[17] = Potency on glucagon-like peptide 1 release, dose-response in NCI-H716 cell line, half maximal inhibitory concentration (AID 1117344); assay type: functional, cell-based
[18] = IC50 of insulin release inhibition, rat insulinoma INS-1E line, 5 mM glucose, cell-based (AID 1117331); assay type: functional
[19] = general cell-killing toxicity readout – plate reader, dry powder samples, cytotoxicity control for PAX8 inhibitor project, dose response (AID 743021); assay type: functional, cell-based
[20] = reduced cellular PGC1a acetyl-lysine signal – cell-based, cherry-picked samples, dose response (AID 720514); assay type: functional;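 also: potency may reflect raised or lowered acetylation signal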
Paired box protein Pax-8 = Paired box protein Pax-8 (Homo sapiens, UniProt Q06710); assay: PAX8 transcriptional activity inhibition in RMG-I – RMG-I cells, luciferase, cherry-pick, dose response (AID 687027); assay type: functional, cell-based;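 also: luciferase reporter driven by Pax8 target thyroperoxidase promoter measured by SteadyGlo luminescence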
[21] = HEK293 Cytotoxicity Assay Measured in Cell-Based System Using Plate Reader - 7071-01_Inhibitor_Dose_CherryPick_Activity_Set2.; assay type: functional
HEK293 = assay: viability loss in HEK293T cells – cell-based, ATP luminescence, cherry-pick samples, cytotoxicity control, dose response (AID 687005); assay type: functional; details: Homo sapiens;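 also: cells exposed to compound for 48 hours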
[22] = OVCAR-3 cell viability loss – plate reader, dry powder samples, PAX8 inhibitor project, dose response (AID 743044); assay type: functional, cell-based
[23] = OVCAR8 cell viability loss – plate reader, dry powder samples, PAX8 project, dose response (AID 743197); assay type: functional, cell-based; details: OVCAR-8
[24] = toxicity toward immortalized ovarian surface epithelium – cell-based, plate reader, dry powder samples, cytotoxicity control for PAX8 inhibitor project, dose response (AID 743045); assay type: functional
[25] = IGROV1 cell killing – plate reader, dry powder samples, PAX8 inhibitor project, dose response (AID 743043); assay type: functional, cell-based; details: IGROV-1
[26] = A2780 cell killing – plate reader, dry powder samples, cytotoxicity control, dose response (AID 743046); assay type: functional, cell-based

Paired box protein Pax-8, sequence (Q06710 whole entry): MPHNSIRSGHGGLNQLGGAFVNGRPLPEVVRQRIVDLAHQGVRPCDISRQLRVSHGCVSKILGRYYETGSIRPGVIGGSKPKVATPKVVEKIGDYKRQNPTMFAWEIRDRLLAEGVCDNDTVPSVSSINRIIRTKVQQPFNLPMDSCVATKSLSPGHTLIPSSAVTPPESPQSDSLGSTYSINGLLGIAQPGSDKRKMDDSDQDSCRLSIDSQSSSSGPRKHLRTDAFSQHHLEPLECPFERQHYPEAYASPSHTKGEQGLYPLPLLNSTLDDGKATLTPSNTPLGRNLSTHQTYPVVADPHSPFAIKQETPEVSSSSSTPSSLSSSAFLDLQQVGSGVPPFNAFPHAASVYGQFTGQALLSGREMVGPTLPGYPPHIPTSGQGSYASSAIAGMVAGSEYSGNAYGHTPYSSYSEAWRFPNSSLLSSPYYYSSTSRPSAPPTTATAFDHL
COUP transcription factor 2, sequence (P24468 whole entry): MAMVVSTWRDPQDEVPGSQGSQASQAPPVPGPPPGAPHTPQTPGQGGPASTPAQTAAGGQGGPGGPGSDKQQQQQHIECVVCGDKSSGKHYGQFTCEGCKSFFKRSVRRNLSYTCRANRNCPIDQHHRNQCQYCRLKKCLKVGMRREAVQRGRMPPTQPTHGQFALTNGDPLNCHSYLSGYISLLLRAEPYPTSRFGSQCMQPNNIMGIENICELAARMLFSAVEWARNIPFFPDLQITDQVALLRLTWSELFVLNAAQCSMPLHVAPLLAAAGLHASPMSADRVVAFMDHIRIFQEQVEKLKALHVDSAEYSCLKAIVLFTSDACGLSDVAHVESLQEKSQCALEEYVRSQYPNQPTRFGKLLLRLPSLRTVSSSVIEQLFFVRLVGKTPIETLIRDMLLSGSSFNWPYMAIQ
Beta-galactosidase, sequence (Q8VNN2 whole entry): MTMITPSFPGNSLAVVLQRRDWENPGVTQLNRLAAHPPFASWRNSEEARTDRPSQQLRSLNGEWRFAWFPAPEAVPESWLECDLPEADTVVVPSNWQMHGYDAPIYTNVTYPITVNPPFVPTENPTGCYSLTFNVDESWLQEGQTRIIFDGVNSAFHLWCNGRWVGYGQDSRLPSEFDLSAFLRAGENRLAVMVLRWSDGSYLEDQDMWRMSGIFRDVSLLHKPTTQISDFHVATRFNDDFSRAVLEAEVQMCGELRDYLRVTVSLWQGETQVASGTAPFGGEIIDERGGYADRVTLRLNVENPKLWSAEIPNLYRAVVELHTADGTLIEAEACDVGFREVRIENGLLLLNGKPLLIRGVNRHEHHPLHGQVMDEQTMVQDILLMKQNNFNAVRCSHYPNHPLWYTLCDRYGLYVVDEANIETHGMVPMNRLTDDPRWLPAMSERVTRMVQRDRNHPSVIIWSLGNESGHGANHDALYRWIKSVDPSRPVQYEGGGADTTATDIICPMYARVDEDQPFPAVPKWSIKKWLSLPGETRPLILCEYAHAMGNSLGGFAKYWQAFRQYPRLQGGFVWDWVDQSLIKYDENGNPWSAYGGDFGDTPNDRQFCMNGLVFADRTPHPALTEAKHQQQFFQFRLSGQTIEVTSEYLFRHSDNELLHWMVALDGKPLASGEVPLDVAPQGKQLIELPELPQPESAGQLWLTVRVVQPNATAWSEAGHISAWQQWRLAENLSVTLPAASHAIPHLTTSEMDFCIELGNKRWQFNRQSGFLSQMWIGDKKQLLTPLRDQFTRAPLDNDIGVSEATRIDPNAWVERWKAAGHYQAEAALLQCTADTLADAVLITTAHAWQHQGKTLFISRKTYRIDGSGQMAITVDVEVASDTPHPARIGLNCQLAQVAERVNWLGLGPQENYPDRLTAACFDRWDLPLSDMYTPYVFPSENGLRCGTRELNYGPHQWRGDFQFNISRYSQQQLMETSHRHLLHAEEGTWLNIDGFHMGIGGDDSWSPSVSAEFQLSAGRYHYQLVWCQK
T1 sequence (P65502 whole entry): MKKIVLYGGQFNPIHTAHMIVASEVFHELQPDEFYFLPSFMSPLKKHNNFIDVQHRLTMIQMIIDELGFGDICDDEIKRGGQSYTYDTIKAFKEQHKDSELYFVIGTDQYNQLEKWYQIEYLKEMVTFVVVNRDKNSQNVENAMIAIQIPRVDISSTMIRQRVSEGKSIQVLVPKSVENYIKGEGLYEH
Kallikrein-7, sequence (P49862 whole entry): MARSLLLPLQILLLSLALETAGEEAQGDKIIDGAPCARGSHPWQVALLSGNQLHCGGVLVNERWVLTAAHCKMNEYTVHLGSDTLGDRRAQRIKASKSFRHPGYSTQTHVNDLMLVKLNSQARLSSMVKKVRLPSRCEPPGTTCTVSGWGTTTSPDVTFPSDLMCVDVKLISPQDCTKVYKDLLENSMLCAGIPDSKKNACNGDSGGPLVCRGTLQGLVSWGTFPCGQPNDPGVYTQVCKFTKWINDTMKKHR
NS3, sequence (A3EZJ3 whole entry): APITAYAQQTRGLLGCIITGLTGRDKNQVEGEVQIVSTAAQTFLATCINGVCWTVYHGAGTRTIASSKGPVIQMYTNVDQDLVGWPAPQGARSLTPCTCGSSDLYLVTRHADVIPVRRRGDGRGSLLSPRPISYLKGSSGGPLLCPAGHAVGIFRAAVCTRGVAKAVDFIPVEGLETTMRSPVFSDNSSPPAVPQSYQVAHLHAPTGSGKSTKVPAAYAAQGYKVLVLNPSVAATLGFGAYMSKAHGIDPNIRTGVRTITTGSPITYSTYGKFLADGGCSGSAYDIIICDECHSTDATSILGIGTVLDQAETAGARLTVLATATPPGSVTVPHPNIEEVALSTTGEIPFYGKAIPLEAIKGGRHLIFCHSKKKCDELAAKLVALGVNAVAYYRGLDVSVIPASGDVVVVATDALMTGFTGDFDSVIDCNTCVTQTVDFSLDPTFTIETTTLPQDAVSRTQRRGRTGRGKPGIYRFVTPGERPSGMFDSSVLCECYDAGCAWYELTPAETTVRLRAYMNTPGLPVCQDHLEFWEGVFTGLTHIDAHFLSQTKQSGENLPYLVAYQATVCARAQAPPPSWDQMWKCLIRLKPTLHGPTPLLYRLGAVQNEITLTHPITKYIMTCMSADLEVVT
Oxysterols receptor LXR-beta, sequence (P55055 whole entry, the tested form may be a part): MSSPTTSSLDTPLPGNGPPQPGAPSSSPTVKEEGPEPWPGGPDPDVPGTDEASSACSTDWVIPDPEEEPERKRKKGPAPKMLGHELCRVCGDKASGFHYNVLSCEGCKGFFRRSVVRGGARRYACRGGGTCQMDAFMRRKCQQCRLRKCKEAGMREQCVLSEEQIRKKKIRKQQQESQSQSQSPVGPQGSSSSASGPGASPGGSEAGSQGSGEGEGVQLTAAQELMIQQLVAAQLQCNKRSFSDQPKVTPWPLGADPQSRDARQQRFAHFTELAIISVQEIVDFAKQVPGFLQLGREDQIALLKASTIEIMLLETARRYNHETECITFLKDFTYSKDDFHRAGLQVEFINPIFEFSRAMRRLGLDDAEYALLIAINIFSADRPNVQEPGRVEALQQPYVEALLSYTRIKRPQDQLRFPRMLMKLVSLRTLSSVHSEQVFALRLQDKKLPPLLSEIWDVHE

SMILES: OC(c1ccccc1)c1nc(-c2cnc3ccccc3c2)cs1 (configuration not stated)
- EC50 [1]: > 67.6 µM (inactive)

SMILES: COc1cc(/C=N/NC(=O)c2c(C)nc3ccc(Cl)cn23)cc(OC)c1OC
- EC50 (Kallikrein-7): 29 µM (inactive)

SMILES: COc1ccc(OCC(=O)N2CCN(C/C=C/c3ccccc3)CC2)cc1
- IC50 (Beta-galactosidase): > 80 µM (inactive)

SMILES: CCCCOc1ccccc1C(=O)NNC(=S)NC(=O)c1ccccc1[N+](=O)[O-]
- IC50 [2]: 20.8 µM (inactive)
- CC50 (Vero [3]): 15.8 µM (active)
- EC50 [4]: > 38 µM (not active)
- IC50 (Vero [5]): > 12.5 µM (active)
- EC50 [6]: > 150 µM (inactive)
- IC50 (NS3): 12.2 µM (not active)

SMILES: Cc1n[nH]c(O)c1C(c1c(C)n[nH]c1O)c1cn(Cc2cccc3ccccc23)c2ccccc12
- CC50 (Vero [7]): > 40 µM (active)
- IC50 [8]: 12.5 µM (active)

SMILES: COc1ccc(NC(=O)C2Cc3c(-c4ccc5c(c4)OCO5)ccnc3O2)cc1OC (configuration not stated)
- IC50 [9]: 8.73 µM (active)

SMILES: CSc1ccc(C2NC(=O)c3ccccc3N2)cc1 (configuration not stated)
- EC50 (Kallikrein-7): > 69.5 µM (inactive)

SMILES: Cc1[nH][nH]c(=O)c1C(c1c(C)[nH][nH]c1=O)c1cn(Cc2cccc3ccccc23)c2ccccc12
- IC50 [10]: 6.89 µM (active)
- IC50 [11]: 5.32 µM (active)
- AC50 [12]: 11.4 µM (active)
- IC50 [13]: 14.7 µM (active)
- IC50 [14]: 3.36 µM (active)
- IC50 [15]: 19.3 µM (active)

SMILES: Cc1cc(OCC(=O)N(C)Cc2ccccc2)ccc1Cl
- AC50 (INS1): > 260 µM (inactive)
- IC50 (Beta-galactosidase): > 80 µM (inactive)

SMILES: Cc1c(N)cccc1C(F)(F)F
- IC50 [16]: > 40 µM (inactive)
- IC50 [17]: > 40 µM (inactive)
- IC50 [18]: > 33.3 µM (inactive)

SMILES: O=C(Nc1ccc(C(F)(F)F)cc1)N1C[C@@H]2N[C@H](C1)[C@@H]2c1ccc(-c2ccccc2)cc1
- AC50 [19]: 33.8 µM (active)
- AC50 [20]: 9.06 µM (active)
- AC50 (Paired box protein Pax-8): 8.62 µM (active)

SMILES: Cc1ccc(S(=O)(=O)N(C)C[C@@H]2Oc3ccc(NS(=O)(=O)c4ccc(Cl)cc4)cc3CC(=O)N([C@@H](C)CO)C[C@@H]2C)cc1
- AC50 [21]: 28 µM (active)
- AC50 (HEK293): 28 µM (active)

SMILES: O=C(CSCc1ccccc1)NNC(=S)Nc1cccc(Cl)c1Cl
- IC50 [2]: > 122 µM (inactive)

SMILES: CC/N=c1\scc(-c2ccc3c(c2)NC(=O)CO3)n1N=C1CCCC1
- EC50 [4]: 2.31 µM (active)
- IC50 [9]: 8.75 µM (active)
- EC50 [6]: > 160 µM (inactive)

SMILES: CC(C)CC#Cc1ccc2c(c1)O[C@@H](CN(C)Cc1ccncc1)[C@H](C)CN([C@H](C)CO)S2(=O)=O
- AC50 [22]: 40.7 µM (active)
- AC50 [23]: 32.6 µM (active)
- AC50 [24]: 48.9 µM (active)
- AC50 (Paired box protein Pax-8): 4.41 µM (active)

SMILES: Fc1cccc(CN2C[C@@H]3N[C@H](C2)[C@@H]3c2ccc(-c3ccccc3)cc2)c1
- AC50 [25]: 27.7 µM (active)
- AC50 [22]: 31 µM (active)
- AC50 [23]: 39.9 µM (active)
- AC50 [20]: 7.52 µM (active)
- AC50 [26]: 15.1 µM (active)
